This note sets out measurements from patent publication US12172995B2, “Substituted indole and indazole compounds” (BRISTOL-MYERS SQUIBB COMPANY, priority 2018, dated 2024).

Structures are written as SMILES. pIC50: −log10 of the molar value.

A word on the pIC50: it is the IC50 on a negative log10 scale, so that one unit is a factor of ten.

Holding throughout (format): cell-based
Experiment [1] addresses T1, human TLR7 (Homo sapiens, UniProt Q9NYK1).
T1 construct: host or cells: HEK-Blue cells
T1 sequence (Q9NYK1 27-1049): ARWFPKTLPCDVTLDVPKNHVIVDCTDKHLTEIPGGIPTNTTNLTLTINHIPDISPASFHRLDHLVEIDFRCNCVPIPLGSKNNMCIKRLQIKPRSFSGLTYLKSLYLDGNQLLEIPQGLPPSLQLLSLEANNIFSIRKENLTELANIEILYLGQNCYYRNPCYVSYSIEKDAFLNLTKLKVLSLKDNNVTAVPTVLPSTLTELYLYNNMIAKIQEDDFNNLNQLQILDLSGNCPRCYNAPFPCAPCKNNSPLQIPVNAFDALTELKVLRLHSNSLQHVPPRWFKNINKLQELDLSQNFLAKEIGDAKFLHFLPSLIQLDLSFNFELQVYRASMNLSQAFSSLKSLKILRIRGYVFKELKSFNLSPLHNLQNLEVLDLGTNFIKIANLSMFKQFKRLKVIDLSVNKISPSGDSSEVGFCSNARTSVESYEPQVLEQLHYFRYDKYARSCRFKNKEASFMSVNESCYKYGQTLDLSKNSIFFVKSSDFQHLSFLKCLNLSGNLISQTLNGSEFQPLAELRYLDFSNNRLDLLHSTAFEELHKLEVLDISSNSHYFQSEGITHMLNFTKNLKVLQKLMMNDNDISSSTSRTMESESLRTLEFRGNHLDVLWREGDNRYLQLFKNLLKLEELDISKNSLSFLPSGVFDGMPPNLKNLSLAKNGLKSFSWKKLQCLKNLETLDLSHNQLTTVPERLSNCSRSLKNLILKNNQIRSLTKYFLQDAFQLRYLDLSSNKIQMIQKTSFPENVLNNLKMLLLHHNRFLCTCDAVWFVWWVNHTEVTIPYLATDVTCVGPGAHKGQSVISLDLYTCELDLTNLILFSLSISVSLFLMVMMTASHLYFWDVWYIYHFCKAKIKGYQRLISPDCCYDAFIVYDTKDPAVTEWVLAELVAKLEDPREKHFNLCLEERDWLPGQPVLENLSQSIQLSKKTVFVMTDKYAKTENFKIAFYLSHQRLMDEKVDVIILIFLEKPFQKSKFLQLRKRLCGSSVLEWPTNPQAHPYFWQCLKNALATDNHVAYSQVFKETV
The experiment in a line: TLR7 inhibition reporter assay (HEK-Blue SEAP). The settings on record: HEK-Blue cells overexpressing human TLR7, stimulated with gardiquimod 7.5 μM, 22 hour incubation. The procedure, abridged: (§1)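 Cells are seeded, given test compound across 0.05 nM to 50 μM, and after 30 min at room temperature stimulated with the receptor's agonist (gardiquimod 7.5 μM, R848 15.9 μM or ODN2006 5 nM for TLR7, 8, 9). SEAP is measured after 22 h at 37 °C.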
A general note: Reporter assays use an easily measured gene product as a stand-in for the process of interest.

Experiment [2] has as its target T2, human TLR9 (Homo sapiens, UniProt Q9NR96).
T2 construct: host or cells: HEK-Blue cells
T2 sequence (Q9NR96 26-1032): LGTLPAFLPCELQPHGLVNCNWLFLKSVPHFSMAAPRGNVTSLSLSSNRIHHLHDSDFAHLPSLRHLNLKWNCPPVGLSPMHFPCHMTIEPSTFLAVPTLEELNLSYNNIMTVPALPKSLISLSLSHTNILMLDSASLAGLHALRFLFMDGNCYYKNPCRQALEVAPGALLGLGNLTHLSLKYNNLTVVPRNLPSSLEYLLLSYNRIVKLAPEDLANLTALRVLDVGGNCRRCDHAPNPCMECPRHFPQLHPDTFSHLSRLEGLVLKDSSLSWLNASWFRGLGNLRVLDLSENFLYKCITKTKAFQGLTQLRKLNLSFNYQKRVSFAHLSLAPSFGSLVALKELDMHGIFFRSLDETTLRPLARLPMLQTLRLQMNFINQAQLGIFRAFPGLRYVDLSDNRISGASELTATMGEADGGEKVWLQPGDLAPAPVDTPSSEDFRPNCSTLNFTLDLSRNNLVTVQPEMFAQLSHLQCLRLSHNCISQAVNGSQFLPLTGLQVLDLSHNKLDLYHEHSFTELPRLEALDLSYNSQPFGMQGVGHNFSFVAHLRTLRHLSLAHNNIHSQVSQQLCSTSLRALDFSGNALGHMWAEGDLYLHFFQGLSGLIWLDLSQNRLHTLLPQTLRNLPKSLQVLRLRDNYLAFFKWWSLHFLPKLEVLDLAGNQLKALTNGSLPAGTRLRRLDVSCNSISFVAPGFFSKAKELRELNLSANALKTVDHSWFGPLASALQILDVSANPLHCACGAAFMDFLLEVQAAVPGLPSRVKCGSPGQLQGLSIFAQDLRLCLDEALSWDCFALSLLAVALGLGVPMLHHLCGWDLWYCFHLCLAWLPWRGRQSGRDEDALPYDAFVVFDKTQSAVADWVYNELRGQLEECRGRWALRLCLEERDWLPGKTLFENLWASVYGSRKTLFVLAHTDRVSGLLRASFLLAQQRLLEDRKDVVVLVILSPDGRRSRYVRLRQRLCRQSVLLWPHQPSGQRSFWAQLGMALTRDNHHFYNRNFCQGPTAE
The experiment in a line: TLR9 inhibition reporter assay (HEK-Blue SEAP). The settings on record: HEK-Blue cells overexpressing human TLR9, stimulated with ODN2006 5 nM, 22 hour incubation. The procedure, abridged:
as §1

For experiment [3], the target named is T3, human TLR8 (Homo sapiens, UniProt Q9NR97).
T3 construct: host or cells: HEK-Blue cells
T3 sequence (Q9NR97 27-1041): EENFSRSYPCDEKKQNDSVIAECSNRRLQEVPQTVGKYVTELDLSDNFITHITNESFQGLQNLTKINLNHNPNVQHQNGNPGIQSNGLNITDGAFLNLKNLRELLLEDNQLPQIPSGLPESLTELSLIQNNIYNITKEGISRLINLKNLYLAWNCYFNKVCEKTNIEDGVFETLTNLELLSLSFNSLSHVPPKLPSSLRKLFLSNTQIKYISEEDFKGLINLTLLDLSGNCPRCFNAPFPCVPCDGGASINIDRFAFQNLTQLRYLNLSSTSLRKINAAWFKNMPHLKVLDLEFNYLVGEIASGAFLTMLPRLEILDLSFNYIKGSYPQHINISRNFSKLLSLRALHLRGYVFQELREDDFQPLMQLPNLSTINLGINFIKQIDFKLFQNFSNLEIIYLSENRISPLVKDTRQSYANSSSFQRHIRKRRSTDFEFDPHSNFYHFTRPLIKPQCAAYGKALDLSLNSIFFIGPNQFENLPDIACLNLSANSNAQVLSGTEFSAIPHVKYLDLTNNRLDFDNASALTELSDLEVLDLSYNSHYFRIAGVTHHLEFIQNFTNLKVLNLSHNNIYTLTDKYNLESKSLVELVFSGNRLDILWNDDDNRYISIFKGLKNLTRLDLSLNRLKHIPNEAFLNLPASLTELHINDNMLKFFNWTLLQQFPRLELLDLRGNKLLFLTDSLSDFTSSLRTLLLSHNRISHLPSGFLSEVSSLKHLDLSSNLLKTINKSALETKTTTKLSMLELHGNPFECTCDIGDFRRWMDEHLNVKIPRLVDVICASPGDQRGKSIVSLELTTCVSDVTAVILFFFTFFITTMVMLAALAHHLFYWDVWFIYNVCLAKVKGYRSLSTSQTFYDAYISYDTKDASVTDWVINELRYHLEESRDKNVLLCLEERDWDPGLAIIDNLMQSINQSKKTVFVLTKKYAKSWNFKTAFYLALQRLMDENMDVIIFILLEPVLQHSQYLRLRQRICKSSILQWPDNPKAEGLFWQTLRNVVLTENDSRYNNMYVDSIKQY
The experiment in a line: TLR8 inhibition reporter assay (HEK-Blue SEAP). The following applies: HEK-Blue cells overexpressing human TLR8, stimulated with R848 15.9 μM, 22 hour incubation. The procedure, abridged:
as §1

As for `Cc1cc(-c2cc(C)c3ncnn3c2)cc2[nH]nc(OC3CCN(CC#N)CC3)c12` [Example 194, 2-(4-((4-methyl-6-(8-methyl-[1,2,4]triazolo[1,5-a]pyridin-6-yl)-1H-indazol-3-yl)oxy)piperidin-1-yl)acetonitrile], the results for the pIC50 in experiment [1], in experiment [2] and in experiment [3] were 8.14, 5.78 and 8.72, respectively.

On to `CCc1cc(-c2cc(C)c3ncnn3c2)cc2[nH]nc(OC3CCNCC3)c12` [Example 195, 6-(4-ethyl-3-(piperidin-4-yloxy)-1H-indazol-6-yl)-8-methyl-[1,2,4]triazolo[1,5-a]pyridine], for which the pIC50 is 8.43 in experiment [1], 5.21 in experiment [2] and 9.10 in experiment [3].

With `CCc1cc(-c2cc(C)c3ncnn3c2)cc2[nH]nc(OC3CCN(CC(=O)N(C)C)CC3)c12` [Example 196, 2-(4-((4-ethyl-6-(8-methyl-[1,2,4]triazolo[1,5-a]pyridin-6-yl)-1H-indazol-3-yl)oxy)piperidin-1-yl)-N,N-dimethylacetamide], the pIC50 in experiment [1] is 8.31; in experiment [2] it was 5.24; in experiment [3], 9.00.

With `COc1cc(-c2ccc3c(C(=O)NC4CCNCC4)c[nH]c3c2)cn2ncnc12` [Example 197, 6-(8-methoxy-[1,2,4]triazolo[1,5-a]pyridin-6-yl)-N-(piperidin-4-yl)-1H-indole-3-carboxamide], the pIC50 in experiment [1] was 6.50; in experiment [2], 4.55; in experiment [3], 5.63.

In the case of `Cc1cc(-c2ccc3c(C(=O)NC4CCNCC4)c[nH]c3c2)cn2ncnc12` [Example 198, 6-(8-methyl-[1,2,4]triazolo[1,5-a]pyridin-6-yl)-N-(piperidin-4-yl)-1H-indole-3-carboxamide], the values for the pIC50 in experiment [1], in experiment [2] and in experiment [3] were 6.31, 5.04 and 6.23, respectively.

On to `Cc1cc(-c2ccc3c(C(=O)NC4CCNCC4)n[nH]c3c2)cn2ncnc12` [Example 199, 6-(8-methyl-[1,2,4]triazolo[1,5-a]pyridin-6-yl)-N-(piperidin-4-yl)-1H-indazole-3-carboxamide], for which the pIC50 was 6.64 in experiment [1], 5.36 in experiment [2] and 6.66 in experiment [3].

For `Cc1cc(-c2ccc3c(NC4CCNCC4)n[nH]c3c2)cn2ncnc12` [Example 200, 6-(8-methyl-[1,2,4]triazolo[1,5-a]pyridin-6-yl)-N-(piperidin-4-yl)-1H-indazol-3-amine], the pIC50 was 6.54 in experiment [1], 5.72 in experiment [2] and 6.83 in experiment [3].

On to `Cc1cc2c(N)n[nH]c2cc1-c1cc(C)c2ncnn2c1` [Example 201, 5-methyl-6-(8-methyl-[1,2,4]triazolo[1,5-a]pyridin-6-yl)-1H-indazol-3-amine], for which the pIC50 in experiment [1] was 6.07; in experiment [2], at most 4.30; in experiment [3] it was 7.25.

Consider `Cc1cc2c(NC(=O)C3CCNCC3)n[nH]c2cc1-c1cc(C)c2ncnn2c1` [Example 202, N-(5-methyl-6-(8-methyl-[1,2,4]triazolo[1,5-a]pyridin-6-yl)-1H-indazol-3-yl)piperidine-4-carboxamide], for which the values for the pIC50 in experiment [1], in experiment [2] and in experiment [3] were 6.57, 5.00 and 7.82, respectively.

With `Cc1cc2c(NCCN3CCCC3)n[nH]c2cc1-c1cc(C)c2ncnn2c1` [Example 204, 5-methyl-6-(8-methyl-[1,2,4]triazolo[1,5-a]pyridin-6-yl)-N-(2-(pyrrolidin-1-yl)ethyl)-1H-indazol-3-amine], the pIC50 in experiment [1] was 7.07; in experiment [2], 5.60; in experiment [3], 8.72.

In the case of `Cc1cc2c(N3CCNCC3)n[nH]c2cc1-c1cc(C)c2ncnn2c1` [Example 205, 8-methyl-6-(5-methyl-3-(piperazin-1-yl)-1H-indazol-6-yl)-[1,2,4]triazolo[1,5-a]pyridine], the pIC50 in experiment [1] is 7.85; in experiment [2], 5.21; in experiment [3], 9.15.

As to `Cc1cc(-c2cc3[nH]nc(N4CCNCC4)c3cc2C(C)C)cn2ncnc12` [Example 206, 6-(5-isopropyl-3-(piperazin-1-yl)-1H-indazol-6-yl)-8-methyl-[1,2,4]triazolo[1,5-a]pyridine], the pIC50 is 8.49 in experiment [1], 4.66 in experiment [2] and 7.79 in experiment [3].

As for `Cc1cc(-c2cc3[nH]nc(N4CCN(C5CCOCC5)CC4)c3cc2C(C)C)cn2ncnc12` [Example 207, 6-(5-isopropyl-3-(4-(tetrahydro-2H-pyran-4-yl)piperazin-1-yl)-1H-indazol-6-yl)-8-methyl-[1,2,4]triazolo[1,5-a]pyridine], the pIC50 in experiment [1] is 8.19; in experiment [2] it was 4.48; in experiment [3], 9.82.

In the case of `Cc1cc(-c2cc3[nH]nc(N4CCN(C(C)C)CC4)c3cc2C(C)C)cn2ncnc12` [Example 208, 6-(5-isopropyl-3-(4-isopropylpiperazin-1-yl)-1H-indazol-6-yl)-8-methyl-[1,2,4]triazolo[1,5-a]pyridine], the pIC50 in experiment [1] is 8.24; in experiment [2], 4.93; in experiment [3], 9.92.
